According to BindingDB's records for doi:10.7270/Q2M32T6M (Vanderbilt Screening Center for GPCRs, Ion Channels and …, 2009):

The molecules below were run against T1, Solute carrier family 12 member 5 (Homo sapiens, UniProt Q9H2X9) (assay: KCC2 modulator potency by thallium flux, dose response, cell-based, HEK293 KCC2, FluoZin-2 fluorescence (AID 1736)). Settings: not given.
T1 sequence (Q9H2X9 whole entry): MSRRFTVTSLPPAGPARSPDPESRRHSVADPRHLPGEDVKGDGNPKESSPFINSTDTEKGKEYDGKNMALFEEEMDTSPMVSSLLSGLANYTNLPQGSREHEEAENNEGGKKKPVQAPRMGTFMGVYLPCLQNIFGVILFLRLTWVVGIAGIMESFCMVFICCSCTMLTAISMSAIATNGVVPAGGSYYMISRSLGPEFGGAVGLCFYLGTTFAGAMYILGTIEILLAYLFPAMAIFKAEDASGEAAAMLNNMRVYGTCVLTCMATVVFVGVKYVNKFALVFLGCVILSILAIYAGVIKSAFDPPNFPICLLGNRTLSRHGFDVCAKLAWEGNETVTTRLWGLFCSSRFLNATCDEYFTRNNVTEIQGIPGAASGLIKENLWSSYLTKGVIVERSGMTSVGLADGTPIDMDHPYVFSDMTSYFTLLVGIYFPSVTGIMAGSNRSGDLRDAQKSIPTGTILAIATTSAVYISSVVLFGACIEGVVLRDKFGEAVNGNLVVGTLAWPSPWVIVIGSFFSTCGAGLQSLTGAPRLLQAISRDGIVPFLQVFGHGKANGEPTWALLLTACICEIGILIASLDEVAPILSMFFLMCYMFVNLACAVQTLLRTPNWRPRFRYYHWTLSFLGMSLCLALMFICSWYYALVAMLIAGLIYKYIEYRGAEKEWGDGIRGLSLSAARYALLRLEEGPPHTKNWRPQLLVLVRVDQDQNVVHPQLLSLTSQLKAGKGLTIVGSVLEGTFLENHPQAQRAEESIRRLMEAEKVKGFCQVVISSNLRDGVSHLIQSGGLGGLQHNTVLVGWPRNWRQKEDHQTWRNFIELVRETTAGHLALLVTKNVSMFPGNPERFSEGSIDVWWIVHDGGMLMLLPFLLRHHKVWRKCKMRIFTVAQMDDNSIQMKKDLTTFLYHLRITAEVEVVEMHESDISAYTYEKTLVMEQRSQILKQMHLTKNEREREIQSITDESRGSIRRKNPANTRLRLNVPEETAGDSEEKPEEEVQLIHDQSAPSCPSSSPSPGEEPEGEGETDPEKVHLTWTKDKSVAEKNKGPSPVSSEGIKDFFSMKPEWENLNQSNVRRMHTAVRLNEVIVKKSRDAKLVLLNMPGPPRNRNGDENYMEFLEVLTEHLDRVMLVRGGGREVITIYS

Row | Structure (SMILES) | EC50
1 | CCCCCC(=O)Cc1cc(O)cc2c1C(=O)Oc1cc(O)c(C(=O)O)c(CCCCC)c1O2 [3,8-Dihydroxy-11-oxo-1-(2-oxo-heptyl)-6-pentyl-11H-dibenzo[b,e][1,4]dioxepine-7-carboxylic acid] | 8.19 µM
2 | Cc1noc(/C=C/c2ccco2)c1S(=O)(=O)N1CCC(C(=O)N2CCc3ccccc3C2)CC1 [2-{[1-({5-[(E)-2-(2-furyl)vinyl]-3-methylisoxazol-4-yl}sulfonyl)piperidin-4-yl]carbonyl}-1,2,3,4-tetrahydroisoquinoline] | 3.86 µM
3 | N#Cc1c(NC(=O)CSc2nc(N)cc(=O)[nH]2)sc2c1CCCCCC2 [2-[(6-amino-4-oxo-1H-pyrimidin-2-yl)sulfanyl]-N-(3-cyano-4,5,6,7,8,9-hexahydrocycloocta[b]thiophen-2-yl)acetamide] | 233 µM
4 | CSCCC(=O)N1CCCC(CNC(=O)c2ccc(-c3ccccc3)cc2)C1 (configuration not stated) [MLS000733867] | 21 µM
5 | Cc1ccc(/C=C2/Sc3ccccc3N(CC(=O)NCCCOC(C)C)C2=O)cc1 [2-[(2E)-2-[(4-methylphenyl)methylidene]-3-oxidanylidene-1,4-benzothiazin-4-yl]-N-(3-propan-2-yloxypropyl)ethanamide] | 21.1 µM
6 | O=C(Nc1ccc(Cc2ccncc2)cc1)c1cccc([N+](=O)[O-])c1 [3-Nitro-N-(4-pyridin-4-ylmethyl-phenyl)-benzamide] | 4.96 µM
7 | CC(C)NC(=S)NNC1=c2cc(C(C)C)ccc2=NC1=O [SMR000242097] | 5.86 µM
8 | Cc1ccc(OCCC(=O)OCC(=O)N2c3ccccc3CC2C)cc1 (configuration not stated) [3-(4-methylphenoxy)propanoic acid [2-(2-methyl-2,3-dihydroindol-1-yl)-2-oxoethyl] ester] | 2.68 µM
9 | O=C(C=Cc1ccccc1)CC(=O)c1ccccc1O [MLS000627068] | 10 µM
10 | COc1cc(OC)c(C2=NOC(C(=O)NCCc3ccccc3)C2)cc1Cl (configuration not stated) [3-(5-chloranyl-2,4-dimethoxy-phenyl)-N-(2-phenylethyl)-4,5-dihydro-1,2-oxazole-5-carboxamide] | 47.1 µM
11 | CCOC(=O)c1sc(Nc2nc3c(OC)cccc3s2)nc1C [SMR000027213] | 23.4 µM
12 | O=C(CSc1nnc(-c2ccc(F)cc2)o1)N1CCN(C(=O)c2ccco2)CC1 [2-[5-(4-Fluoro-phenyl)-[1,3,4]oxadiazol-2-ylsulfanyl]-1-[4-(furan-2-carbonyl)-piperazin-1-yl]-ethanone] | 5.32 µM
13 | CN1c2ccccc2Oc2nnc(N3CCN(Cc4ccccc4)CC3)cc21 [3-(4-benzylpiperazin-1-yl)-5-methylpyridazino[3,4-b][1,4]benzoxazine] | 1.88 µM
14 | Oc1c(Br)cc(Br)cc1C=NNC(=S)N[C@H]1CC2C=CC1C2 (some centres not stated) [SMR000455893] | 12.7 µM
15 | CCn1c(SCC(=O)Nc2ccc(Cl)cc2)nc2nc3c(cc2c1=O)CCCC3 [MLS000589154] | 45.5 µM
16 | Cc1noc(C)c1S(=O)(=O)N1CCC(C(=O)N2CCN(c3ccc(F)cc3)CC2)CC1 [1-({1-[(3,5-dimethylisoxazol-4-yl)sulfonyl]piperidin-4-yl}carbonyl)-4-(4-fluorophenyl)piperazine] | 23.1 µM
17 | Cc1cccc(Nc2nnc(SCC(=O)c3ccc(Br)s3)s2)c1C [1-(5-bromanylthiophen-2-yl)-2-[[5-[(2,3-dimethylphenyl)amino]-1,3,4-thiadiazol-2-yl]sulfanyl]ethanone] | 4.28 µM
18 | S=C(NN=Cc1cccc2ccccc12)Nc1cccc(Cl)c1 [1-(3-chlorophenyl)-3-(1-naphthalenylmethylideneamino)thiourea] | 8.29 µM
19 | COc1cc(C=NN(C)c2ccccc2)ccc1O | 2.75 µM
20 | Cc1ccc(Nc2nnc(SCC(=O)c3ccc(Br)s3)s2)c(C)c1 [1-(5-bromanylthiophen-2-yl)-2-[[5-[(2,4-dimethylphenyl)amino]-1,3,4-thiadiazol-2-yl]sulfanyl]ethanone] | 1.22 µM

Row | Structure (SMILES) | EC50
21 | O=C(CSc1ccc(-c2ccccc2)nn1)N1CCCc2ccccc21 [1-(3,4-dihydro-2H-quinolin-1-yl)-2-(6-phenylpyridazin-3-yl)sulfanyl-ethanone] | 13.5 µM
22 | CCCCCN1C/C=C\C(c2ccc(OC)cc2)N(Cc2ccc(F)cc2)C(=O)C1 (configuration not stated) [(6Z)-1-amyl-4-(4-fluorobenzyl)-5-(4-methoxyphenyl)-5,8-dihydro-2H-1,4-diazocin-3-one] | 8.78 µM
23 | CC(=NNC(=O)c1ccc(Cl)c(Cl)c1)c1ccc(Br)s1 [N-[1-(5-bromo-2-thiophenyl)ethylideneamino]-3,4-dichlorobenzamide] | 1.46 µM
24 | Cn1cc(C(=O)C(=O)N2CCCc3ccccc32)c2ccccc21 [1-(3,4-dihydro-2H-quinolin-1-yl)-2-(1-methyl-3-indolyl)ethane-1,2-dione] | 8.6 µM
25 | Cc1ccccc1-c1nc(C[S+]([O-])CC(=O)NCc2ccccc2)c(C)o1 (configuration not stated) [2-[[5-methyl-2-(2-methylphenyl)-1,3-oxazol-4-yl]methylsulfinyl]-N-(phenylmethyl)ethanamide] | 8.09 µM
26 | COc1ccc(-c2cc(CCCC(=O)NCCc3ccccc3)no2)cc1 [4-[5-(4-methoxyphenyl)-1,2-oxazol-3-yl]-N-(2-phenylethyl)butanamide] | 0.642 µM
27 | O=C(CSc1nccc(=O)[nH]1)N1CCc2ccccc2C1 [SMR000124078] | 17.1 µM
28 | Oc1ccccc1CN=Nc1nc2ccccc2o1 [(6E)-6-[(1,3-benzoxazol-2-ylhydrazo)methylidene]-1-cyclohexa-2,4-dienone] | 367 µM
29 | CCN(CC)S(=O)(=O)c1ccc(NC(=O)CSc2ncnc3ccccc23)cc1 [MLS000393282] | 3 µM
30 | Sc1nnc(Cc2cccc3ccccc23)o1 [5-(1-naphthalenylmethyl)-3H-1,3,4-oxadiazole-2-thione] | 0.283 µM
31 | CC1Cc2ccccc2N1C(=O)c1ccc(N2CCCC2)c([N+](=O)[O-])c1 (configuration not stated) [(2-methyl-2,3-dihydroindol-1-yl)-(3-nitro-4-pyrrolidin-1-yl-phenyl)methanone] | 0.651 µM
32 | Cc1ccc(CSCCNC(=O)c2ccc(C)cc2)cc1 [4-methyl-N-[2-[(4-methylbenzyl)thio]ethyl]benzamide] | 15.4 µM
33 | O=C(NNc1nc(-c2ccc(F)cc2)cs1)c1ccccc1 [MLS000763429] | 0.928 µM
34 | O=c1[nH]c2c(s1)C(c1ccccc1)c1c(c(O)n(-c3ccccc3)c1O)S2 (configuration not stated) | 0.0458 µM
35 | O=C(CSc1ncccc1-c1nc2ccccc2[nH]1)N1CCN(c2ccccc2F)CC1 [MLS000033700] | 26.5 µM
36 | CCOc1ccc2nc(Sc3cc(O)n(-c4cccc(OC)c4)c3O)sc2c1 [3-(6-Ethoxy-benzothiazol-2-ylsulfanyl)-1-(3-methoxy-phenyl)-pyrrolidine-2,5-dione] | 11 µM
37 | c1ccc(-c2nnc(Sc3ncnc4c3cnn4-c3ccccc3)[nH]2)cc1 [SMR000019566] | 6.74 µM
38 | O=c1c(-c2cnn(-c3ccccc3)c2)coc2cc(O)ccc12 [7-hydroxy-3-(1-phenyl-1H-pyrazol-4-yl)-4H-chromen-4-one] | 8.92 µM
39 | O=C(CSc1ccccc1C(=O)NCc1ccccc1)NC1CCCCCCC1 [2-[2-(cyclooctylamino)-2-oxidanylidene-ethyl]sulfanyl-N-(phenylmethyl)benzamide] | 1.65 µM
40 | CC1Cc2ccccc2N1C(=O)c1ccc(N2CCCCC2)c([N+](=O)[O-])c1 (configuration not stated) [(2-methyl-2,3-dihydroindol-1-yl)-(3-nitro-4-piperidin-1-yl-phenyl)methanone] | 0.632 µM

Same assay, conditions: inactive by the depositor's call

Row | Structure (SMILES) | EC50
41 | Cc1nc(N2CCN(Cc3ccccc3)CC2)nc2c1C(=O)CCC2 [2-(4-benzylpiperazin-1-yl)-4-methyl-7,8-dihydro-6H-quinazolin-5-one] | 8.64 µM
42 | O=C(NC(=S)NNC(=O)c1ccccc1O)c1ccco1 [Furan-2-carboxylic acid [N'-(2-hydroxy-benzoyl)-hydrazinocarbothioyl]-amide] | 303 µM
43 | S=c1nc(-c2ccc3c(c2)CCO3)cc[nH]1 | 16.7 µM
44 | O=C(CSc1nnc(CNc2ccccc2)o1)c1ccc2c(c1)OCCO2 [1-(2,3-Dihydro-benzo[1,4]dioxin-6-yl)-2-(5-phenylaminomethyl-[1,3,4]oxadiazol-2-ylsulfanyl)-ethanone] | 2.09 µM
45 | CNC(=O)C(=O)Nc1nc(C23CC4CC(CC(C4)C2)C3)cs1 [N'-[4-(1-adamantyl)-1,3-thiazol-2-yl]-N-methyl-ethanediamide] | 22.6 µM
46 | CCOC(=S)N=C(NS(=O)(=O)c1ccc(C)cc1)c1ccccc1 [MLS000579749] | 24.9 µM
47 | CCc1ccc(OCC(=O)NNC(=O)CSc2ncnc3sc(C)c(C)c23)cc1 [(4-Ethyl-phenoxy)-acetic acid N'-[2-(5,6-dimethyl-thieno[2,3-d]pyrimidin-4-ylsulfanyl)-acetyl]-hydrazide] | 1070 µM
